“And” between values parts separate entries of the source, which are not always exact repeats. Equal values may be shown once. Read-outs that look alike come from different tables or passages of the source.
Experiments:
[1] = system: L. donovani amastigotes (strain MHOM/ET/67/L82); test: Antileishmanial activity on L. donovani (axenic amastigote assay); assay type: cell-based, Leishmania donovani; details: for IC50: 72 h, axenic amastigotes, mean ± margin of deviation of two independent determinations
Procedure: Fifty µL of SM medium at pH 5.4 supplemented with 10% heat-inactivated FBS, was added to each well of a 96-well microtiter plate. Serial drug dilutions were prepared covering a range from 100.0 to 0.002 µM. Then 10^5 axenically grown L. donovani amastigotes (strain MHOM/ET/67/L82) in 50.0 µL medium were added to each well and the plate incubated at 37 °C under a 5% CO2 atmosphere for 72 h. Resazurin solution (10.0 µL, 12.5 mg resazurin dissolved in 100 mL distilled water) were then added to each well and incubation continued for a further 2–4 h. The plate was then read in a Spectramax Gemini XS microplate fluorometer (Molecular Devices, Sunnyvale, CA, USA) using an excitation wavelength of 536 nm and emission wavelength of 588 nm. Fluorescence development was measured and expressed as percentage of the control. Data were transferred into the graphic programme Softmax Pro (Molecular Devices) which calculated IC50 values from the sigmoidal inhibition curves.

[2] = system: T. b. rhodesiense STIB 900 bloodstream forms; test: Anti-trypanosomal activity on T. brucei rhodesiense (Alamar blue); assay type: cell-based, Trypanosoma brucei rhodesiense
Procedure: Minimum Essential Medium with Earle’s salts (50.0 µL) supplemented with 0.2 mM 2-mercaptoethanol, 1.0 mM Na pyruvate and 15% heat-inactivated horse serum was added to each well of a 96-well microtiter plate. Serial drug dilutions of eleven 3-fold steps covering a range from 100 to 0.002 µM were prepared. Then 10^4 bloodstream forms of T. b. rhodesiense STIB 900 in 50.0 µL of medium were added to each well and the plate incubated at 37 °C under a 5% CO2 atmosphere for 72 h. Alamar blue solution (10.0 µL of a solution of 12.5 mg resazurin dissolved in 100 mL distilled water) were then added to each well and incubation continued for a further 2–4 h. The plate was then read in a Spectramax Gemini XS microplate fluorometer (Molecular Devices Corporation, Sunnyvale, CA, USA) using an excitation wavelength of 536 nm and emission wavelength of 588 nm. Fluorescence development was measured and expressed as percentage of the control. Data were transferred into the graphic programme Softmax Pro (Molecular Devices), which calculated IC50 values.

[3] = Cytotoxicity assay against L6 cells; assay type: cell-based; details: rat skeletal myoblast L6, mean ± margin of deviation of two independent determinations
Procedure: Cytotoxicity was assessed using rat skeletal myoblasts (L6 cells) and a similar protocol as used for the Tbr assay. […] All following steps were according to the T. b. rhodesiense protocol (see Section 3.3. above).

[4] = system: P. falciparum NF54 strain; test: Antiplasmodial activity, [3H]-hypoxanthine incorporation assay; assay type: cell-based, Plasmodium falciparum
Procedure: Antiplasmodial activity was determined using the NF54 strain of P. falciparum (drug sensitive). A modification of the [^3H]-hypoxanthine incorporation assay was used. […] After 48 h of incubation at 37 °C in a reduced oxygen atmosphere, 0.5 μCi ^3H-hypoxanthine was added to each well. Cultures were incubated for a further 24 h before they were harvested onto glass-fiber filters and washed with distilled water. The radioactivity was counted using a Betaplate™ liquid scintillation counter (Wallac, Zurich, Switzerland). […] From the sigmoidal inhibition curves IC50 values were calculated. Assays were run in duplicate and repeated once.

T. brucei = details: cited from earlier work
malarial parasite = system: malarial parasite; set-up: method as in PMID 21157686; details: cited from earlier work
[5] = Trypanosoma brucei, 72 h; mean ± margin of deviation of two independent determinations; read-out: IC50 Values T. b. rhodesiense
[6] = L6 cells (rat skeletal myoblasts)
[7] = 72 h; mean ± margin of deviation of two independent determinations; read-out: IC50 Values T. b. rhodesiense
[8] = Plasmodium falciparum, NF54, NF54 strain, mean ± margin of deviation of two independent determinations, read-out: IC50 Values P. falciparum
[9] = Plasmodium falciparum, NF54, read-out: IC50 Values P. falciparum

Structure (SMILES)	Activity against bloodstream forms of T. brucei (in words) [2]	IC50 [2, 5] [µM]	IC50 [3, 6] [µM]	IC50 [4, 8] [µM]	other results
C/C1=C\[C@@H]2O[C@@H](O)[C@@]3(C)O[C@@]23CC/C(C)=C/CC[C@](C)(O)[C@H](O)CC1 [Compound 7, lobocrasol B]	–	–	–	–	Antileishmanial activity (in words) [1]: devoid of antileishmanial activity
C=C(C)C1CCC23OC2C(CC(C)(O)C=C2C=C(C(=O)OC)C(OC)(C1)O2)OC3=O (centres unmarked) [Compound 18, Sinumaximol C]	showed activity	9.88 ± 1.93	28.7 ± 9.95	–	–
COC(=O)C(C)C1=CC=C(C)CCC2OC2(C)CCC=C(C)CC1 (stereo not drawn) [Compound 1, 7S,8S-epoxy-1,3,11-cembratriene-16-oic methyl ester]	showed activity	≤ 1	> 54	22.95 ± 0.15	IC50 [2, 7]: 1 ± 0.19 µM
C=C(C)C1CC(=O)CC2OC(C)(CC2=O)CC2C=C(C(=O)O2)C(OC)C1 (stereo not drawn) [Compound 21, 13-Epi-scabrolide C]	showed activity	11.8 ± 4.46	47.5 ± 6	–	–
C=C1CO[C@H]2/C=C(\C)CC[C@@H]3O[C@]3(C)CC/C=C(\C)CC[C@@]12O [Compound 11, laevigatol B]	–	–	–	–	In vitro activity against T. brucei (in words) (T. brucei): active
C=C1CCC2(O)C(=C)COC2C=C(C)CCC(O)C2(C)CCC1O2 (centres unmarked) [Compound 13, crassumol E]	showed activity	≤ 1	43 ± 2.6	7.43 ± 0.86	IC50 [2, 7]: 0.72 ± 0.04 µM; Selectivity index, times more active against Tbr than against L6 cells ([2]; L6 vs Tbr): 60
Nc1nc(N)nc(Nc2ccc([As]3SCC(CO)S3)cc2)n1 (centres unmarked) [Melarsoprol, reference compound]	–	–	–	–	IC50 ([2]; Trypanosoma brucei, 72 h, read-out: IC50 Values T. b. rhodesiense): 0.005 µM; IC50 [3]: 28.9 ± 9.3 µM
C/C1=C\CC/C(C)=C/C[C@](O)(C(C)C)CC/C(C)=C/CC1 [serratol, reference compound]	–	–	–	–	In vitro activity against T. brucei (in words) (T. brucei): also showed such activity; Activity against the malarial parasite (in words) (malarial parasite): some activity
CC1=C2CCC3(C)OC2(OC1)C1C3CCC(C)(O)C2CCC1(C)O2 (centres unmarked) [Compound 12, crassumol D]	showed activity	≤ 1	58.7 ± 1	–	IC50 [2, 7]: 0.61 ± 0.01 µM; Selectivity index, times more active against Tbr than against L6 cells ([2]; L6 vs Tbr): 96
C=C1CCC(C(C)C)C=CC(C)(O)CC=CC(C)(O)CCC1O [Compound 16, (1S,2E,4S,6E,8S,11S)-2,6,12(20)-cembrantriene-4,8,11-triol]	showed activity	≤ 1	48.6 ± 3.45	–	IC50 [2, 7]: 0.65 ± 0.01 µM; Selectivity index, times more active against Tbr than against L6 cells ([2]; L6 vs Tbr): 75
CC1=CCCC(C)(O)C=CC(C(C)C)CCC(C)=CCC1 [Compound 2, (1R,4R,2E,7E,11E)-cembra-2,7,11-trien-4-ol]	showed activity	≤ 1	49.4 ± 5.2	14.8 ± 0.9	IC50 [2, 7]: 1.14 ± 0.5 µM; Selectivity index, times more active against Tbr than against L6 cells ([2]; L6 vs Tbr): 43
C=C(C)C1CC=C(C(=O)OC)CC(=O)CC(C)(O)C(O)C2=CC(C(=O)OC)=C(C1)O2 (centres unmarked) [Compound 17, Sinumaximol A]	–	–	–	–	IC50 ([2]; Trypanosoma brucei; 72 h; mean ± margin of deviation of two independent determinations; read-out: IC50 Values T. b. rhodesiense): > 20 µM; IC50 [4, 9]: 7.2 ± 0.71 µM; IC50 [3]: 45 ± 2.9 µM
C/C1=C\[C@@H]2O[C@@H](O)[C@@]3(C)O[C@@]23CC/C(C)=C/CC[C@@]2(C)O[C@H]2CC1 [Compound 10, laevigatol A]	–	> 20	28.8 ± 10.3	3	Selectivity index SI = IC50(L6)/IC50(parasite), P. falciparum ([4]; L6 vs Pf): 9.52; IC50 ([4]; NF54 strain, mean ± margin of deviation of two independent determinations, read-out: IC50 Values P. falciparum): < 5 µM and 3.02 µM
CCCCCCCCCCCCCCCCOP(=O)([O-])OCC[N+](C)(C)C [Miltefosine, reference compound]	–	–	143 ± 35.3	–	IC50 ([1]; Leishmania donovani): 0.14 ± 0.05 µM
CCN(CC)CCCC(C)Nc1ccnc2cc(Cl)ccc12 (centres unmarked) [Chloroquine, reference compound]	–	–	–	–	IC50 [4, 9]: 0.004 µM; IC50 [3]: 120 ± 27.5 µM
C/C1=C\[C@@H]2O[C@@H](O)[C@@]3(C)O[C@@]23CC/C(C)=C/CC[C@](C)(O)[C@@H](O)CC1 [Compound 6, Lobocrasol A]	showed activity	9.97 ± 0.64	56 ± 3.65	–	Antileishmanial activity (in words) [1]: strongly and selectively active; IC50 ([1]; Leishmania donovani): < 0.2 µM; IC50 [1]: 0.18 ± 0.02 µM
C=C1CO[C@H]2/C=C(\C)CC[C@@H](O)[C@@](C)(O)C/C=C/[C@](C)(O)CC[C@@]12O [Compound 8, lobocrasol C]	showed activity	9.37 ± 0.74	40.5 ± 7.75	7.37 ± 0.35	Antileishmanial activity (in words) [1]: strongly and selectively active; IC50 ([1]; Leishmania donovani): < 0.2 µM; IC50 [1]: 0.17 ± 0.05 µM
C=C1CCC2=C(C)C(=O)OC2C=C(C)CCC(O)C2(C)CCC1O2 (centres unmarked) [Compound 15, Crassumol G]	showed activity	12.2 ± 0.1	33.2 ± 13.5	7.57 ± 0.59	–

From article PMC6332397, “Anti-Protozoal Activities of Cembrane-Type Diterpenes from Vietnamese Soft Corals” (Molecules, 2015)
